Test results published in patent US10994016B2, “Graphene oxide mediated cellular delivery of gadolinium-labeled molecules” (Northwestern University, priority 2015, dated 2021).
Values joined by “and” are separate entries in the source; they are usually repeats but may differ in a detail not shown here. Identical values can stand only once.

Columns and labels:
HeLa cells = test: Cellular delivery studies with and without GO co-incubation, HeLa; type: cell-based; conditions: for Gd content (fmol/cell): 24 h, replicate values; for Gd content (fmol/cell), Outliers: values removed as outliers (Chauvenet's criterion, * experimenter judgment)
Method: ICP-MS Samples were prepared in 15-mL conical tubes by adding ACS reagent grade nitric acid (70%), followed by incubation at 70° C. overnight to allow for complete sample digestion. The effectiveness of this digestion protocol was previously validated for GO. After incubation, a multi-element internal standard (containing Bi, Ho, In, Li, Sc, Tb, and Y, Inorganic Ventures, Christiansburg, Va.) and milli-Q water (18.2 MΩ·cm) were added to produce a final sample of 3% (v/v) nitric acid and 5 ng/mL internal standard.
ICP-MS was performed on a computer-controlled (Plasmalab software) Thermo X series II ICP-MS (Thermo Fisher Scientific, Waltham, Mass., USA) operating in standard mode equipped with an ESI SC-2 autosampler (Omaha, Nebr., USA). Each sample was acquired using 1 survey run (10 sweeps) and 3 main (peak jumping) runs (100 sweeps). The isotopes selected for analysis were Gd with In and Ho isotopes selected as internal standards for data interpolation. Instrument performance is optimized daily through an autotune followed by verification via a performance report (passing manufacturer specifications). Instrument calibration was accomplished by preparing individual-element Gd standards (Inorganic Ventures, Christiansburg, Va., USA) using concentrations of 0.78125, 1.5625, 3.125, 6.25, 12.50, 25.00, 50.00, 100.0, and 200.0 ng/mL containing 3.0% nitric acid (v/v) and 5.0 ng/mL of multi-element internal standard.
Dulbecco's modified phosphate buffered saline (DPBS), media, and dissociation reagents were purchased from Life Technologies (Carlsbad, Calif.). CorningBrand® cell culture consumables (flasks, plates, etc.) and sera were purchased from VWR Scientific (Radnor, Pa.). HeLa cells (ATCC® CCL-2™) and KB cells (ATCC® CCL-17™) were purchased from the American Type Culture Collection (ATCC, Manassas, Va.) and cultured in phenol red-free minimum essential media (MEM) supplemented with 10% fetal bovine serum (FBS). Prior to all experiments, cells were plated and allowed to incubate for 24 hours before dosing. Cells were harvested with 0.25% TrypLE for 5 minutes at 37° C. in a 5.0% CO2 incubator. For sterilization, all Gd(III)-labeled molecules were filtered with 0.2 μm sterile filters prior to concentration determination and storage at 4° C. GO was used as prepared without further sterilization. […] Cells were grown in a humidified incubator operating at 37° C. and 5.0% CO2.
Cell counting was conducted using a Guava EasyCyte Mini Personal Cell Analyzer (EMD Millipore, Billerica, Mass.). After cell harvesting, an aliquot (50 μL) of the cell suspensions was mixed with Guava ViaCount reagent (150 μL) and allowed to stain at room temperature for at least 5 minutes. The dilution factor of 4 was determined based upon optimum machine performance (20-150 cells/μL). After vortexing for 10 sec, stained cells were counted using a Guava EasyCyte Mini Personal Cell Analyzer (PCA) using the ViaCount software module. For each sample, 1000 events were acquired. Gating of live/dead and cell/debris classifications were performed manually by the operator.
Cellular delivery studies were performed with HeLa and KB cells. HeLa and KB were plated at a cell density of approximately 25,000 and 50,000 cells per well, respectively, in a 24-well plate as counted by a hemocytometer. Stock solutions of 1-14 (1 mM), 150 nm GO (100 μg/mL), and 1500 nm GO (100 μg/mL) were prepared using sterile Milli-Q water. Prior to dosing, 80 μL ([…]) of each GO (150 nm and 1500 nm) and 80 μL (80 nmol) of each Gd(III)-labeled molecule (1-14) were mixed and allowed to adsorb for at least 15 minutes. 150 μL Gd(III)-GO solutions were added to 250 μL media to give a final concentration of 188 μM Gd and 18.8 μg/mL GO. Cells were incubated with the mixture of Gd(III)-labeled molecules and GO for […]. To harvest, cells were rinsed in-plate three times with 500 μL PBS and trypsinized using 100 μL 0.25% TrypLE. […]

[1] = Octanol-water partition coefficients; type: physicochemical; conditions: errors show SEM; Gd in each layer by ICP-MS
Method: Approximately 1 mg of each compound was dissolved in 1 mL of a 1:1 mixture of water/1-octanol. After shaking the sample tube vigorously for 30 s, the tube was placed on a rotator for gentle mixing over 6 h. The tube was then removed from the rotator and allowed to sit for 12 h to ensure complete separation of the aqueous and organic phases. […] Once separation was complete, 10 μL was removed from each layer to determine the concentration of Gd by ICP-MS. The partition coefficient was calculated from the following equation: log10P=log10(Co/Cw), where log10 P is the logarithm of the partition coefficient, Co is the concentration of Gd in the 1-octanol layer, and Cw is the concentration of Gd in the water layer.

[2] = +150 nm GO co-incubation, 188 μM Gd(III), 18.8 μg/mL GO
[3] = +1500 nm GO co-incubation, 188 μM Gd(III), 18.8 μg/mL GO
[4] = molecule alone, without GO, 188 μM Gd(III), 24-well plate

| SMILES | Gd content (fmol/cell) (HeLa cells; [2]) | Gd content (fmol/cell), Outliers (HeLa cells; +150 nm GO) | Gd content (fmol/cell) (HeLa cells; [3]) | Gd content (fmol/cell) (HeLa cells; [4]) | Water-Octanol LogP [1] | Delivery enhancement without adsorption time (HeLa cells; 1500 nm GO, 188 μM Gd(III), 18.8 μg/mL GO) | Gd content (fmol/cell), Outliers (HeLa cells; molecule alone, without GO) | Gd content (fmol/cell), Outliers (HeLa cells; +1500 nm GO) |
| --- | --- | --- | --- | --- | --- | --- | --- | --- |
| C[N+](C)(C)CCCc1cn(CC(O)CN2CCN(CC(=O)[O-])CCN(CC(=O)[O-])CCN(CC(=O)[O-])CC2)nn1.[Gd+3] (stereo not shown) [Molecule 5] | 0.37 fmol/cell and 0.29 fmol/cell and 0.42 fmol/cell and 0.43 fmol/cell | 2.73 fmol/cell | 0.42 fmol/cell and 0.36 fmol/cell and 0.32 fmol/cell | 0.52 fmol/cell and 0.29 fmol/cell and 0.25 fmol/cell and 0.35 fmol/cell and 0.37 fmol/cell | −4.33 ± 0.46 |  |  |  |
| NCCCCCCN1CCN(CC(=O)[O-])CCN(CC(=O)[O-])CCN(CC(=O)[O-])CC1.[Gd+3] [Molecule 9] | 28.63 fmol/cell and 32.09 fmol/cell and 29.78 fmol/cell |  | 11.67 fmol/cell and 20.36 fmol/cell and 14.83 fmol/cell | 6.86 fmol/cell and 7.54 fmol/cell and 4.78 fmol/cell and 7.33 fmol/cell and 8.77 fmol/cell and 6.65 fmol/cell and 7.40 fmol/cell | −3.98 ± 0.07 | same result | 13.02* fmol/cell and 14.46* fmol/cell and 18.05 fmol/cell and 24.04 fmol/cell |  |
| O=C([O-])CN1CCN(CC(=O)[O-])CCN(CC(=O)[O-])CCN(CC(=O)[O-])CC1.[Gd+3] [Molecule 14] | 0.35 fmol/cell and 0.26 fmol/cell and 0.21 fmol/cell |  | 0.34 fmol/cell and 0.21 fmol/cell and 0.18 fmol/cell and 0.31 fmol/cell | 0.22 fmol/cell and 0.31 fmol/cell and 0.20 fmol/cell | −3.62 ± 0.23 |  |  | 4.32 fmol/cell |
| O=C([O-])CN1CCNCCN(CC(=O)[O-])CCN(CC(=O)[O-])CC1.[Gd+3] [Molecule 7] | 0.53 fmol/cell and 0.39 fmol/cell (2×) and 0.42 fmol/cell and 0.44 fmol/cell (2×) and 1.09 fmol/cell and 0.73 fmol/cell |  | 0.63 fmol/cell and 0.55 fmol/cell and 0.68 fmol/cell and 0.50 fmol/cell and 1.05 fmol/cell and 1.36 fmol/cell | 0.47 fmol/cell and 0.39 fmol/cell and 0.51 fmol/cell and 0.46 fmol/cell and 0.75 fmol/cell and 0.83 fmol/cell | −3.71 ± 0.02 |  | 4.93* fmol/cell and 4.31* fmol/cell | 6.54 fmol/cell and 4.00 fmol/cell |
| O=C([O-])CN1CCN(CC(=O)[O-])CCN(CC(O)Cn2cc(CCCC(=O)O)nn2)CCN(CC(=O)[O-])CC1.[Gd+3] (stereo not shown) [Molecule 4] | 0.31 fmol/cell and 0.23 fmol/cell (2×) and 0.33 fmol/cell and 0.25 fmol/cell and 0.13 fmol/cell and 0.16 fmol/cell and 0.17 fmol/cell and 0.20 fmol/cell and 0.29 fmol/cell and 0.22 fmol/cell | 0.66 fmol/cell and 0.76 fmol/cell and 0.62 fmol/cell | 0.58 fmol/cell and 0.27 fmol/cell and 0.33 fmol/cell and 0.30 fmol/cell and 0.31 fmol/cell and 0.53 fmol/cell | 0.51 fmol/cell and 0.26 fmol/cell and 0.25 fmol/cell and 0.23 fmol/cell and 0.34 fmol/cell and 0.36 fmol/cell | −3.44 ± 0.28 |  | 0.76 fmol/cell | 1.00 fmol/cell |
| O=C([O-])CN1CCN(CC(=O)[O-])CCN(CC(O)Cn2cc(CCCOP(=O)(O)O)nn2)CCN(CC(=O)[O-])CC1.[Gd+3] (stereo not shown) [Molecule 3] | 1.84 fmol/cell and 1.36 fmol/cell and 1.29 fmol/cell |  | 1.61 fmol/cell and 1.64 fmol/cell and 1.41 fmol/cell | 0.74 fmol/cell and 0.90 fmol/cell and 0.65 fmol/cell | −4.05 ± 0.17 |  |  |  |
| O=C([O-])CN1CCN(CC(=O)[O-])CCN(CC(O)Cn2cc(CCCO)nn2)CCN(CC(=O)[O-])CC1.[Gd+3] (stereo not shown) [Molecule 2] | 0.84 fmol/cell and 0.81 fmol/cell and 0.90 fmol/cell |  | 0.59 fmol/cell and 0.88 fmol/cell and 0.70 fmol/cell | 0.30 fmol/cell and 0.38 fmol/cell and 0.36 fmol/cell | −3.98 ± 0.06 |  |  |  |
